Laboratory results from patent US20180085356A1, “METHOD OF TREATING DISEASE CHARACTERISED BY PROTEIN AGGREGATE DEPOSITION IN NEURONAL CELLS” (CHRONOS THERAPEUTICS LIMITED, priority 2013, published 2018).

Columns and labels:
[1] = test system: primary motor neuron (MN) cultures generated from rat spinal cord; experiment: Motor neuron culture with Aβ1-42 insult: neurite network and survival (MAP-2 staining); assay type: cell-based; conditions: 24 hours after 20 μM Aβ1-42 insult, treated 1 hour before
Description: Primary motor neuron (MN) cultures generated from rat spinal cord were treated with 20 μM amyloid beta 1-42 peptide (Aβ1-42). […] This model was used to determine the effect of tacrolimus on TDP-43 toxicity in motor neurons. […] After permeabilisation with 0.1% saponin, one group of cells was incubated for 2 hours with a) mouse monoclonal anti-microtubule-associated-protein 2 (MAP-2) antibody, and b) rabbit polyclonal anti-TDP-43 antibody. The anti-MAP-2 antibody was used to determine MN survival (number of stained MN) and MN neurite length. The anti-TDP-43 antibody was used to examine extranuclear TDP-43: the area of extranuclear TDP-43 staining per MN was calculated by normalising to the number of MAP-2 positive cells.

IL-6 = experiment: Microglial inflammatory cytokine production by qPCR (LPS challenge); assay type: cell-based, rat; conditions: 100 ng/ml LPS overnight
Description: (§1) To investigate the effect of tacrolimus on microglial function, rat microglia were isolated as follows. A primary glial co-culture was isolated from P2 Sprague Dawley rat pups. The cells were cultured until confluency and then the microglia were isolated from the confluent glial cells through mechanical shaking. The isolated microglial cells were then subjected to inflammatory challenge by overnight exposure to 100 ng/ml lipopolysaccharide (LPS), in the presence or absence of tacrolimus. Glial cell activity was monitored by determining cell viability (Cell Counting Kit-8), the presence of reactive oxygen species (by quantitative fluorescence measurement in the supernatant/cell lysate), microvesicle shedding (by monitoring vesicle formation in cells loaded with Calcein-AM and then challenged with 1 mM ATP) and inflammatory cytokine production (by qPCR).

[2] = test system: unilaterally 6-OHDA-lesioned rats; experiment: Amphetamine-induced rotational asymmetry in unilaterally 6-OHDA-lesioned rats; assay type: in vivo, rat; conditions: 1 mg/kg s.c. 6 days/week, by 6 months, compared to baseline; p<0.05 vs. vehicle at 6 months
Source text: The objective of this study was to investigate the effect of chronic subcutaneous (s.c) tacrolimus treatment in an aged rat model of Parkinson's disease. Lesion of dopaminergic projections was created by unilateral injection of 6-hydroxydopamine (6-OHDA) in the right medial forebrain bundle (MFB), causing a widespread de-afferentation of substantia nigra pars compacta (SNc) and ventral tegmental area (VTA) terminal fields. The animals can then be monitored for amphetamine-induced rotation asymmetry behaviour: because the lesion is unilateral, asymmetric movement is observed. The degree to which a drug treatment is able to counteract the effects of the lesion can be measured by the reduction in the asymmetry of movement (i.e. the number of clockwise (CW) rotations vs. the number of counterclockwise (CCW) rotations). 50 female Fischer rats aged 18 months were stereotactically injected with 4 μl […] 6-OHDA into the right MFB. […] Motor asymmetry was monitored in automated rotometer bowls (TSE Systems, Germany) for 120 minutes after injection of amphetamine (2.5 mg/kg s.c.). The net rotation asymmetry score for amphetamine test was calculated by subtracting contralateral turns from the ipsilateral turns to the lesion side.

caspase-3 = experiment: Motor neuron culture with Aβ1-42 insult: caspase-3 induction; assay type: cell-based, rat; conditions: all 3 concentrations, greatest effect at 100 nM; control increased by 91%
Description: Primary motor neuron (MN) cultures generated from rat spinal cord were treated with 20 μM amyloid beta 1-42 peptide (Aβ1-42). This insult causes an acute increase in TDP-43 levels in the cells and serves as a model for the TDP-43 mislocalisation, aggregation and toxicity observed in the motor neurons of ALS patients (reviewed in Callizot et al, poster “Amyloid peptide and cytoplasmic TDP-43 accumulation in pathogenesis of ALS: an in vitro study”, http://www.neuro-sys.fr/IMG/pdf/poster_adpd2017_tdp43.pdf). This model was used to determine the effect of tacrolimus on TDP-43 toxicity in motor neurons.
A separate group of cells was incubated with a) mouse monoclonal anti-microtubule-associated-protein 2 (MAP-2) antibody, and b) rabbit polyclonal anti-caspase-3 antibody. This group was used to determine the number of caspase-3-positive MN, i.e. the number of overlapping MAP-2 and caspase-3-positive cells.

ALS = conditions: Pong et al., Current Drug Targets 2003; cited from earlier work
[3] = test system: α-synuclein and phospho-Tau (p-Tau); experiment: Immunohistochemistry for α-synuclein and p-Tau in SNc of 6-OHDA-lesioned rats; assay type: in vivo, rat; conditions: 1 mg/kg s.c., 3 months; p<0.05 vs. vehicle
Description: After 3 months, 10 randomly selected rats (5 from each group) were terminally anaesthetised. Blood and striatal tissue samples were taken and the posterior brain block containing the SNc was fixed by immersion in 4% paraformaldehyde in 0.1 M phosphate buffer (PB) for 24 hours. Following cryoprotection in 30% sucrose in 0.1M PB for 2-3 days and freezing the blocks in liquid nitrogen, samples were stored at −80° C. for α-synuclein and phospho-Tau (p-Tau) immunohistochemistry (IHC). This was repeated for 11 rats at 6 months (randomly selected from the surviving rats in both groups). Immunohistochemistry for α-synuclein and p-Tau was carried out. Brain samples containing the SNc region were double-immunostained for p-Tau (AT8) and α-synuclein. The number of positive cells for each single stain and the number of double-stained cells was manually counted for 6 sections per animal.

rat microglia = experiment: Microglial cell culture model of inflammation (LPS challenge); assay type: cell-based; conditions: 100 ng/ml LPS overnight
Description: as §1

Q: With `C=CC[C@@H]1/C=C(\C)C[C@H](C)C[C@H](OC)[C@H]2O[C@@](O)(C(=O)C(=O)N3CCCC[C@H]3C(=O)O[C@H](/C(C)=C/[C@@H]3CC[C@@H](O)[C@H](OC)C3)[C@H](C)[C@@H](O)CC1=O)[C@H](C)C[C@@H]2OC` [tacrolimus, Tacrolimus] as the compound, how does the “motor neuron neurite network” value ([1]; p<0.05 all concentrations vs. Aβ) read?
A: The value was “concentration-dependent increase”.

Q: What about the motor neuron survival ([1]; p<0.05 for 100 nM, 1 μM vs. Aβ) of the same compound?
A: Its motor neuron survival is “concentration-dependent increase”.

Q: And the “LPS induction of IL-6 expression” value (IL-6)?
A: The value was “significantly reduced”.

Q: And the amphetamine-induced rotational asymmetry [2]?
A: Its amphetamine-induced rotational asymmetry is “significant reduction in rotational asymmetry”.

Q: What about the “caspase-3 levels in response to Aβ1-42 insult” value (caspase-3) of the same compound?
A: The value was “increase was less”.

Q: And the “efficacy in the treatment of ALS” value (ALS)?
A: The value was “ineffective”.

Q: And the “number of cells staining positively for p-Tau” value [3]?
A: Its value is “lower counts of positive cells”.

Q: And the “number of cells staining positively for α-synuclein” value [3]?
A: The value was “lower counts of positive cells”.

Q: What about the “LPS-induced oxidative stress (reactive oxygen species)” value (rat microglia; p<0.01 all concentrations, concentration-dependent) of the same compound?
A: The value was “significantly reduced”.

Q: And the “LPS-induced increase in metabolic activity of glial cells” value (rat microglia; p<0.01 for 100 nM and 1 μM)?
A: The value was “reduces this increase in a concentration-dependent manner”.

Q: What about the LPS-induced microvesicle shedding (rat microglia; p<0.01 for 1 μM, concentration-dependent) of the same compound?
A: The LPS-induced microvesicle shedding was “increase is reduced”.
